# Reference: US9447053B2, “Process for the preparation of calcobutrol” (Bayer Intellectual Property GMBH, priority 2009, dated 2016)
# Columns and labels:
# [1] = Properties of the Calcobutrol product and of Gadovist solutions prepared from it; type: physicochemical; settings: product of the process
# From the text: The Calcobutrol prepared in this manner is characterised by a very high quality. […] The whole process, from Gadobutrol to Calcobutrol, is characterised by a high reproducibility and workability. The total yield of 91.2% is very good. […] The sodium salt of Calcobutrol is obtained through addition of a stoichiometric amount of sodium hydroxide in situ.
# [2] = pH-potentiometric equilibrium titrations of the ligand (butrol) in the presence of Ca2+ ions; type: physicochemical
# Protocol: The thermodynamic stability constant of Calcobutrol and the acid dissociation constant have been determined by pH-potentiometric equilibrium titrations of the ligand (butrol) in the presence of Ca^2+ ions (at 25° C., in 0.1 N KCl) at different ratios of Ca^2+:ligand.
# Based on these measured values, the distribution of calcium between free calcium ion, neutral complex (Calcobutrol, ligand has two negative charges), and anionic complex (ligand has three negative charges) can be calculated for different pH values. […] Due to this equilibrium between the calcium-containing species, preparative methods in aqueous solution will lead to some impurities.
structure (smiles),measurement,setting,value
"O=C([O-])CN1CCN(CC(=O)[O-])CCN(C(CO)C(O)CO)CCN(CC(=O)[O-])CC1.O=C([O-])CN1CCN(CC(=O)[O-])CCN(C(CO)C(O)CO)CCN(CC(=O)[O-])CC1.[Ca+2].[Ca+2].[Ca+2] (centres unmarked) [Calcobutrol, calcium complex of 10-(2,3-Dihydroxy-1-(hydroxymethyl)propyl)-1,4,7,10-tetraazacyclodecane-1,4,7-triacetic acid]",solubility in water,[1],soluble in water
same,storage stability,[1],stable for storage
same,thermodynamic stability constant log(KCaL-),"[2]; 25° C., 0.1 N KCl, different ratios of Ca2+:ligand, KCaL-=[CaL-]/[Ca2+][L3-]",14.67±0.02
same,acid dissociation constant pKa,"[2]; 25° C., 0.1 N KCl, Ka=[CaL-][H+]/[CaLH]",3.39±0.12
same,share of neutral complex among the calcium-containing species,"[2]; calculated from measured constants, at any pH (FIG. 1)",≤ 20%
